“Also recorded” adds a separate entry of the source.
Columns and labels:
[1] = Critical (phase transition) temperature Tc by differential scanning calorimetry; assay type: physicochemical; settings: for Tc (critical temperature), Pure: pure lipid; for Tc (phase transition temperature): lipids 21 and 25, DSC, heating rate 5° C./minute
Experimental: General. Melting points for the diols and the phase transition temperature Tc for the cationic lipids were determined by differential scanning calorimetry (DSC), using a TA-Instruments Q100 DSC, and a heating rate of 5° C./minute. The IR spectra were recorded on a Nicolet Avatar 360 FTIR spectrophotometer in the range 650-4000 cm^−1 using a ZnSe—attenuated total reflectance (ATR) accessory. The compounds were solved in a small amount of solvent (MeOH for the diols, CHCl3 for the lipids), and the resulted solutions were left to evaporate to dryness on the surface of the ZnSe crystals of the ATR accessory. The NMR spectra were recorded at ≈303 K with a Varian Inova spectrometer equipped with a 5 mm indirect detection probe, operating at 500 MHz for ^1H-NMR and at 125 MHz for ^13C-NMR. Chemical shifts are reported as δ values, using TMS as internal standard for proton spectra and the solvent resonance for carbon spectra. Assignments were made based on signal intensity, selective decoupling, COSY (^1H-^1H) and HETCOR (^1H-^13C) sequences. Elemental analyses were performed by combustion, using a Perkin Elmer 2400 Series II CHNS analyser.
(§1) Dioleoylphosphatidylethanolamine (DOPE), cholesterol (CHOL), N-(2,3-dioleoyloxypropyl)-N,N,N-trimethylammonium chloride (DOTAP) were commercial products. The purity of the lipids was checked by thin layer chromatography and also by differential scanning calorimetry (DSC), which was also used for determining the critical temperature Tc. For the preparation of the liposomes a protocol optimized for this type of compounds was adopted as follows. The cationic lipid (with or without helper lipid) was dissolved in chloroform/methanol (2/1, v/v) to reach a final concentration of 1 mM for the charged species. From this stock solution 50 μL were aliquoted in a 1 mL tube and the solvent was evaporated in a SpeedVac evaporator, under vacuum, for 1 h. The dried lipid film was prepared by removing the traces of organic solvent in a dessicator, over Drierite®, under vacuum, overnight. The film was hydrated with 500 μL sterile phosphate buffer saline (PBS) the tube was purged with sterile N2, and vortexed for 1 minute. The liposomes were generated by sonicating the tube in a water bath sonicator for 5-30 minutes at 62° C. and at 37° C. for DOTAP. After sonication the preparations were allowed to reach room temperature.
Materials and Methods. Melting points for the diols, acetates and ketals were determined on a Boetius heating plate microscope and are uncorrected. For the cationic lipids 21 and 25 the phase transition temperature Tc was determined by differential scanning calorimetry (DSC), using a TA-Instruments Q100 DSC, and a heating rate of 5° C./minute. The IR spectra were recorded on a Nicolet Avatar 360 FTIR spectrophotometer, in the range 650-4000 cm^−1, using a ZnSe—attenuated total reflectance (ATR) accessory. The compounds were solved in a small amount of solvent (MeOH for the diols, CHCl3 for the esters), the resulted solutions being left to evaporate to dryness on the surface of the ZnSe crystals of the ATR accessory. This technique was imposed by the poor results obtained in transmission mode for some of the compounds, due to the lack of crystallization, hygroscopicity and other problems related with working with KBr pellets. The NMR spectra were recorded at ≈303 K with a Varian Gemini 300BB spectrometer operating at 300 MHz for ^1H and at 75 MHz for ^13C. Chemical shifts are reported as δ values, using TMS as internal standard for proton spectra and the solvent resonance for carbon spectra: 77.00 ppm in CDCl3, 39.50 ppm in DMSO-d6, the line from 123.50 ppm in pyridine-d5, 62.80 ppm in nitromethane-d3, 30.10 ppm in dimethylformamide-d7. Assignments were made based on signal intensity, selective decoupling and COSY (^1H-^1H) and HETCOR (^1H-^13C) sequences. Nitrogen elemental analysis was performed by combustion, mixing the samples with small amounts of quartz sand.

[2] = tested on: lung cancer cell line NCI-H23; assay: Luciferase (pGL3) transfection efficiency of lipoplexes, NCI-H23; assay type: cell-based, human; settings: for transfection efficiency (in words): cholesterol as helper lipid 1:1, charge ratio lipid/DNA 2:1; for transfection efficiency, counterion study: 5Myr/Chol 1:1, PBS, sonicated two sequences of 15 minutes, FIG. 5
Experimental: (§2) The three series of cationic lipids newly synthesized were assessed for their transfection efficiency in vitro, using the experimental conditions optimized in a previous study.^23 Essentially the cationic lipids were mixed with cholesterol at a 1:1 molar ratio, dissolved in chloroform/methanol and dried under vacuum to generate a lipid film. The dried lipid film was hydrated with sterile phosphate buffer isotonic saline with pH=7.4 (PBS) and sonicated to yield cationic liposomes. The resulting liposomal solution was allowed to react with a DNA solution to form the final cationic lipid-DNA complexes (lipoplexes), which were assessed for transfection efficiency using different cell cultures. We used a pGL3 plasmid (Promega, Madison, Wisc.), encoding a firefly luciferase gene under the control of the constitutively active SV40 promoter as the reporter for the transfection efficiency. An optimal^23 electrostatic charge ratio cationic lipid/DNA of 2:1 was used in all preparations. […] The ability of these new cationic lipids to generate relatively small cationic liposomes could be attributed to the relatively large curvature radius induced in the bilayer by the bulky pyridinium cationic head.
as §1
For generating the lipoplexes, 1.4-2.8 μL plasmid DNA solution (0.5 μg/μL) was diluted with 100 μL Optimem®. A liposome solution was prepared separately by diluting the initial liposomal stock solution (0.1 mM in cationic lipid) with Optimem® in specified proportions, to reach a final volume of 50 μL. Over this liposome solution 50 μL of the DNA stock solution was added, the tube was incubated for 30 minutes at room temperature and then the content diluted with 500 μL Optimem® (final volume of the lipoplex stock solution: 600 μL).
The lipoplexes was tested for their transfection properties over five different cancer cell lines—breast carcinoma (MCF-7 and MDA-Mb231), lung carcinoma (NCI-H23), prostate carcinoma (DU-145) and brain carcinoma (SWB-95). The cells were maintained in 10% fetal bovine serum (FBS)—enriched RPMI 1640 at 37° C. and 5% CO2 in a humidified atmosphere. Twenty-four hours prior to transfection the cells were transferred in 96-wells microtiter plate at a density of 20,000 cells/well. Each well received 100 μL medium and the plate was incubated in the same conditions. All experiments were done in triplicate or quadruplicate.
Immediately before transfection the medium was removed from each well and the cells were briefly washed with 200 μL sterile PBS. After removal of the PBS each well received 100 μL lipoplex stock solution and the plate was placed in the incubator for 1 hour. Then, 100 μL medium was added to each well and the plate was incubated for 24 hours. […]

[3] = Cationic liposome size by dynamic light scattering; assay type: physicochemical
Experimental: as §2, §1

cancer cell line NCI-H23 = assay: WST-1 viability assay of transfected cells; assay type: cell-based, human; settings: for cytotoxicity (WST-1 viability): NCI-H23 transfected with lipoplexes, Chol 1:1, FIG. 6
Experimental: FIG. 6. Viability assay results for the cancer cell line NCI-H23 transfected with 5AMyr-5EMyr and DOTAP (Cl^−)-based lipoplexes. The other characteristics were the same as in the transfection experiment represented in FIG. 5.
In order to assess the cytotoxicity associated with every anion, a WST-1^28 viability assay was conducted in parallel.

[4] = tested on: lung cancer cell line NCI-H23; assay: Luciferase (pGL3) transfection efficiency of lipoplexes, NCI-H23; assay type: cell-based, human; settings: exposure from one hour to three hours; data not shown
[5] = cholesterol at 1:1 molar ratio to cationic lipid
[6] = molar ratio of cholesterol to lipid halved

Structure (SMILES)	Tc (critical temperature), Pure [1]	Tc (critical temperature), With cholesterol (1:1 molar ratio) ([1]; 1:1 molar ratio)	transfection efficiency (in words) [2]	cytotoxicity (WST-1 viability) (cancer cell line NCI-H23)	further results
CCCCCCCC/C=C\CCCCCCCC(=O)OCC(COC(=O)CCCCCCC/C=C\CCCCCCCC)[n+]1c(C)cc(C)cc1C.F[P-](F)(F)(F)(F)F [Lipid 5AOle, 1-(1,3-dioleoyloxypropane-2-yl)-2,4,6-trimethylpyridinium hexafluorophosphate]	17.0 °C	31.0 °C	low transfection efficiency		
CC(=O)OCC(COC(C)=O)[n+]1c(C)cc(C)cc1C.F[B-](F)(F)F					melting point: 110 to 111 °C
CC(=O)OCC(C[n+]1c(C)cc(C)cc1C)OC(C)=O.F[B-](F)(F)F (centres unmarked)					melting point: 119 to 120 °C
CCCCCCCCCCCCCC(=O)OCC(C[n+]1c(C)cc(C)cc1C)OC(=O)CCCCCCCCCCCCC.F[P-](F)(F)(F)(F)F (centres unmarked) [Lipid 3AMyr, 1-(2,3-dimyristoyloxypropyl)-2,4,6-trimethylpyridinium hexafluorophosphate]	121.3 °C	112.5 °C	highest transfection peaks		Tc (critical temperature), With DOPE (1:1 molar ratio) ([1]; with DOPE, 1:1 molar ratio): 107.7 °C; average size of the cationic vesicles [3, 5]: 132 nm; average size of the cationic vesicles [3, 6]: 89 nm
CCCCCCCCCCCCCC(=O)OCC(COC(=O)CCCCCCCCCCCCC)[n+]1c(C)cc(C)cc1C.F[B-](F)(F)F [Lipid 5CMyr, 1-(1,3-dimyristoyloxypropane-2-yl)-2,4,6-trimethylpyridinium tetrafluoroborate]	58.4 °C	55.2 °C		minimum cytotoxicity	
CCCCCCCC/C=C\CCCCCCCC(=O)OCC(C[n+]1c(C)cc(C)cc1C)OC(=O)CCCCCCC/C=C\CCCCCCCC.F[P-](F)(F)(F)(F)F (centres unmarked) [Lipid 3AOle, 1-(2,3-dioleoyloxypropyl)-2,4,6-trimethylpyridinium hexafluorophosphate]	67.9 °C	58.5 °C	secondary peak		average size of the cationic vesicles [3, 5]: 113 nm; average size of the cationic vesicles [3, 6]: 103 nm
CCCCCCCCCCCCCC(=O)OCC(COC(=O)CCCCCCCCCCCCC)[n+]1c(C)cc(C)cc1C.[Cl-] [Lipid 5DMyr, 1-(1,3-dimyristoyloxypropane-2-yl)-2,4,6-trimethylpyridinium chloride]	76.3 °C	81.2 °C		minimum cytotoxicity; also recorded: lower cytotoxic effect	transfection efficiency, counterion study [2]: surpassed DOTAP in transfection efficiency; cytotoxic effect on longer cell exposure to lipoplexes (cancer cell line NCI-H23; exposure from one hour to three hours, data not shown): without any visible cytotoxic effect; transfection efficiency on longer cell exposure to lipoplexes [4]: higher transfection efficiencies
CCCCCCCCCCCCCC(=O)OCC(COC(=O)CCCCCCCCCCCCC)[n+]1c(C)cc(C)cc1C.[I-] [Lipid 5EMyr, 1-(1,3-dimyristoyloxypropane-2-yl)-2,4,6-trimethylpyridinium iodide]	60.8 °C	80.1 °C		more cytotoxic	transfection efficiency, counterion study [2]: followed by the hexafluorophosphate 5AMyr, chloride 5DMyr, tetrafluoroborate 5CMyr, and iodide 5EMyr
CCCCCCCCCCCC(=O)Oc1ccc(CC[n+]2c(C)cc(C)cc2C)cc1OC(=O)CCCCCCCCCCC.F[P-](F)(F)(F)(F)F [Lipid 7ALau, 1-(3,4-dilauroyloxyphenylethyl)-2,4,6-trimethylpyridinium hexafluorophosphate]	140.7 °C	126.9 °C	best transfection efficiency		transfection efficiency relative to another derivative of series 7 ([2]; cholesterol 1:1, FIG. 2): about five times more active than the decanoyl derivative 7ACpc; also recorded: about ten times more efficient than the oleoyl derivative 7AOle
CCCCCCCCCCCCCCCCCC(=O)OCC(COC(=O)CCCCCCCCCCCCCCCCC)[n+]1c(C)cc(C)cc1C.F[P-](F)(F)(F)(F)F [Lipid 5ASte, 1-(1,3-distearoyloxypropane-2-yl)-2,4,6-trimethylpyridinium hexafluorophosphate]	79.6 °C	66.1 °C			
CCCCCCCCCCCCCC(=O)OCC(COC(=O)CCCCCCCCCCCCC)[n+]1c(C)cc(C)cc1C.[O-][Cl+3]([O-])([O-])[O-] [Lipid 5BMyr, 1-(1,3-dimyristoyloxypropane-2-yl)-2,4,6-trimethylpyridinium perchlorate]	60.2 °C	58.4 °C		more cytotoxic	transfection efficiency, counterion study [2]: most efficient lipoplexes
CCCCCCCCCCCCCCCC(=O)OCC(COC(=O)CCCCCCCCCCCCCCC)[n+]1c(-c2ccccc2)cc(-c2ccccc2)cc1-c1ccccc1.[O-][Cl+3]([O-])([O-])[O-] [Lipid 25BaP, 1-(1,3-Dipalmitoyloxypropane-2-yl)-2,4,6-triphenylpyridinium perchlorate]					Tc (phase transition temperature) [1]: 125 °C
CCCCCCCCCCCCCCCC(=O)OCC(C[n+]1c(C)cc(C)cc1C)OC(=O)CCCCCCCCCCCCCCC.F[B-](F)(F)F (centres unmarked) [Lipid 21AbP, 1-(2,3-Dipamitoyloxypropyl)-2,4,6-trimethylpyridinium tetrafluoroborate]					Tc (phase transition temperature) [1]: 100 °C
